From PMC9032233, “2-{5-[(Z,2Z)-2-Chloro-3-(4-nitrophenyl)-2-propenylidene]-4-oxo-2-thioxothiazolidin-3-yl}-3-methylbutanoic Acid as a Potential Anti-Breast Cancer Molecule” (International Journal of Molecular Sciences, 2022)

Tests used:
[1] = Parallel artificial membrane permeability assay (PAMPA); type: in vitro ADME; details: 200 µM in PBS pH 7.4, 5 h at RT, read-out: permeability coefficient Pe
Method: All in vitro assays used for the evaluation of Les-3331 ADME-Tox parameters were described previously. In brief, for the determination of permeability, Pre-coated PAMPA Plate System Gentest^TM was purchased from Corning (Tewksbury, MA, USA). […] PAMPA plates with compounds added to the donor wells were incubated for 5 h at RT. UPLC-MS Waters ACQUITY—TQD system with the TQ Detector (Waters, Milford, MI, USA) was used next for determination of compounds concentrations in donor and acceptor wells, which were required for calculation of permeability coefficient Pe according to formulas provided by the manufacturer.

LC3A [2] = assay: LC3A concentration in MCF-7 cell lysates (ELISA); type: cell-based, human; details: MCF-7, 5 mM, 24 h; control 6.726 ng/mL
Method: (§1) High sensitivity assay kits (EIAab Science Co., Ltd., Wuhan, China; Abcam plc., Cambridge, United Kingdom; Cloud-Clone Corp., Katy, TX, USA) were used to determine the concentrations of selected proteins in cell lysates […] In brief, after trypsinization, cells were washed thrice with cold PBS and centrifuged at 1000× g for 5 min at 4 °C. Then, cells (1.5 × 10^6) were suspended in lysis buffer for whole-cell lysates. After the second centrifugation, cellular supernatants were frozen immediately at −70 °C. Untreated cancer cells were taken as a control.
(§2) The microtiter plates provided in the kits were pre-coated with an antibody specific to the analyzed antigen. The tests were carried out according to the manufacturer’s protocols.

LC3A [3] = assay: LC3A concentration in MDA-MB-231 cell lysates (ELISA); type: cell-based, human; details: MDA-MB-231, 5 mM, 24 h; control 2.965 ng/mL
Method: as §1, §2

LC3B [4] = assay: LC3B concentration in MCF-7 cell lysates (ELISA); type: cell-based, human; details: MCF-7, 5 mM, 24 h; control 1.194 ng/mL
Method: as §1, §2

LC3B [5] = assay: LC3B concentration in MDA-MB-231 cell lysates (ELISA); type: cell-based, human; details: MDA-MB-231, 5 mM, 24 h; control 1.504 ng/mL
Method: as §1, §2

Beclin-1 [6] = assay: Beclin-1 concentration in MCF-7 cell lysates (ELISA); type: cell-based, human; details: 5 mM, 24 h, control 7.965 ng/mL
Method: as §1, §2

Beclin-1 [7] = assay: Beclin-1 concentration in MDA-MB-231 cell lysates (ELISA); type: cell-based, human; design: unit of the concentration uncertain; details: MDA-MB-231, 5 (unit uncertain), 24 h; control 3.605 ng/mL
Method: as §1, §2

Structure (SMILES)	Papp at 5 h, 200 µM [1]	LC3A concentration (LC3A [2])	LC3A concentration (LC3A [3])	LC3B concentration (LC3B [4])	LC3B concentration (LC3B [5])	Beclin-1 concentration (Beclin-1 [6])	Beclin-1 concentration (Beclin-1 [7])
Cn1c(=O)c2c(ncn2C)n(C)c1=O [caffeine, reference compound]	6.58 ×10⁻⁶ cm/s						
Cn1cnc(N)c2ncnc1-2 [3-MA, 3-Methyladenine]		4.423 ng/mL	0.994 ng/mL	0.664 ng/mL	0.628 ng/mL	6.344 ng/mL	2.399 ng/mL
